Reference: patent publication US4477458A, “Thiazolidine derivatives and their mucolytic compositions and methods” (Camillo Corvi S.p.A., priority 1981, dated 1984)
Structures can show the parent of a compound that is named as a salt.

Columns and labels:
Acute toxicity, rabbit = details: in vivo, iv
Acute toxicity, rat = details: in vivo
Description: (§1) The acute and subacute toxicity tests were performed by using Swiss mice and Wistar rats of both sexes.

[1] = tested on: mucus production of rabbit; experiment: Activity on mucus production of rabbit (method of R. Scuri and Coll.); format: in vivo; details: for Mucoproduction at hours 0 - 4: mean ± E.S.
[2] = tested on: mucus of animals made bronchitic experimentally; experiment: Fluidizing activity - viscosity of mucus of experimentally bronchitic animals (Contraves Rehomat microviscosimeter); format: in vivo, rabbit; details: 20 mg/kg i.v.
Description: (§2) The pharmacological activity was measured by studying the effect on the compound (CO/1177) on:
(§3) (b) viscosity of mucus of sound animals (rabbits) and/or of animals made bronchitic experimentally by using, for the viscosimeter measures, a Contraves Rehomat microviscosimeter at 15 automatic scanning speeds;

Acute toxicity, mouse = details: in vivo
Description: as §1

[3] = tested on: mucus of sound animals (rabbits); experiment: Fluidizing activity - viscosity of mucus of sound animals (Contraves Rehomat microviscosimeter); format: in vivo, rabbit; details: 20 mg/kg i.v.
Description: as §2, §3

gastric mucin of the pig = experiment: "in vitro" viscosity of gastric mucin of the pig (Contraves Rehomat microviscosimeter); details: conc. 2 %; for Viscosity of gastric mucin: 0.1 ml; for Viscosity of gastric mucin, Var. %: vs Mucin + H2O
Description: The pharmacological activity was measured by studying the effect on the compound (CO/1177) on: (c) "in vitro" viscosity of gastric mucin of the pig by using, for the viscometer measures, a Contraves Rehomat microviscosimeter at 15 automatic scanning speeds.

Structure (SMILES): O=C(O)c1ccccc1C(=O)N1CCSC1 [CO/1177, 2-(1,3-thiazolidin-3-yl)-carbonyl-benzoic acid (Na salt)]
- LD50 (Acute toxicity, rabbit): ~3500 mg/kg
- LD50 (Acute toxicity, rat; iv): > 5000 mg/kg
- LD50 (Acute toxicity, rat; po): > 5000 mg/kg
- Mucoproduction at hours 0 - 4 ([1]; 2.5 mg/kg i.v.): 52.760 ± 20.29 mg/h
- Mucoproduction at hours 0 - 4 ([1]; 5 mg/kg i.v.): 37.650 ± 0.231 mg/h
- Mucoproduction at hours 0 - 4 ([1]; 10 mg/kg i.v.): 49.250 ± 6.020 mg/h
- Mucoproduction at hours 0 - 4 ([1]; 100 mg/kg os): 34.320 ± 5.850 mg/h
- Mucoproduction at hours 0 - 4 ([1]; 200 mg/kg os): 86.250 ± 10.80 mg/h
- Mucoproduction at hours 0 - 4 ([1]; 400 mg/kg os): 30.730 ± 7.630 mg/h
- change in vivo at 2.5 mg/kg ([1]; Oryctolagus cuniculus, iv, 2.5 mg/kg i.v., 0-4 h vs -4-0 h, read-out: Mucoproduction Var. %): 32%
- change in vivo at 5 mg/kg ([1]; Oryctolagus cuniculus, iv, 5 mg/kg i.v., 0-4 h vs -4-0 h, read-out: Mucoproduction Var. %): 34.6%
- change in vivo at 10 mg/kg ([1]; Oryctolagus cuniculus, iv, 10 mg/kg i.v., 0-4 h vs -4-0 h, read-out: Mucoproduction Var. %): 71%
- change in vivo at 100 mg/kg ([1]; Oryctolagus cuniculus, po, 100 mg/kg os, 0-4 h vs -4-0 h, read-out: Mucoproduction Var. %): 16.3%
- change in vivo at 200 mg/kg ([1]; Oryctolagus cuniculus, po, 200 mg/kg os, 0-4 h vs -4-0 h, read-out: Mucoproduction Var. %): 51.2%
- change in vivo at 400 mg/kg ([1]; Oryctolagus cuniculus, po, 400 mg/kg os, 0-4 h vs -4-0 h, read-out: Mucoproduction Var. %): 97.6%
- Viscosity, time 0-24 ([2]; speed 17.4 g/min): 50.30 cps
- Viscosity Var. % ([2]; speed 25 g/min): -58.4%
- Viscosity, time 0-24 ([2]; speed 25 g/min): 41.5 cps
- Viscosity Var. % ([2]; speed 33.6 g/min): -60%
- Viscosity, time 0-24 ([2]; speed 33.6 g/min): 28.70 cps
- Viscosity Var. % ([2]; speed 44.3 g/min): -56.6%
- Viscosity, time 0-24 ([2]; speed 44.3 g/min): 22.4 cps
- Viscosity Var. % ([2]; speed 56.1 g/min): -51.9%
- Viscosity, time 0-24 ([2]; speed 56.1 g/min): 14.50 cps
- Viscosity Var. % ([2]; speed 77.9 g/min): -60.9%
- Viscosity, time 0-24 ([2]; speed 77.9 g/min): 10.7 cps
- Viscosity Var. % ([2]; speed 113.2 g/min): -63.8%
- Viscosity, time 0-24 ([2]; speed 113.2 g/min): 6.7 cps
- Viscosity Var. % ([2]; speed 152 g/min): -68.1%
- Viscosity, time 0-24 ([2]; speed 152 g/min): 5.2 cps
- Viscosity Var. % ([2]; speed 200 g/min): -66.7%
- Viscosity, time 0-24 ([2]; speed 200 g/min): 4.0 cps
- Viscosity Var. % ([2]; speed 266.8 g/min): -71.8%
- Viscosity, time 0-24 ([2]; speed 266.8 g/min): 2.4 cps
- Viscosity Var. % ([2]; speed 352 g/min): -68.9%
- Viscosity, time 0-24 ([2]; speed 352 g/min): 1.9 cps
- LD50 (Acute toxicity, mouse; iv): 3000 mg/kg
- LD50 (Acute toxicity, mouse; po): > 5000 mg/kg
- Viscosity Var. % ([3]; speed 17.4 g/min): -100%
- Viscosity, time 0-24 ([3]; speed 17.4 g/min): 0 cps
- Viscosity Var. % ([3]; speed 25 g/min): -81.7%
- Viscosity, time 0-24 ([3]; speed 25 g/min): 0.88 cps
- Viscosity Var. % ([3]; speed 33.6 g/min): -78.6%
- Viscosity, time 0-24 ([3]; speed 33.6 g/min): 1.97 cps
- Viscosity Var. % ([3]; speed 44.3 g/min): -71.5%
- Viscosity, time 0-24 ([3]; speed 44.3 g/min): 2.00 cps
- Viscosity Var. % ([3]; speed 56.1 g/min): -67.6%
- Viscosity, time 0-24 ([3]; speed 56.1 g/min): 2.43 cps
- Viscosity Var. % ([3]; speed 77.9 g/min): -53.6%
- Viscosity, time 0-24 ([3]; speed 77.9 g/min): 2.55 cps
- Viscosity Var. % ([3]; speed 113.2 g/min): -37.7%
- Viscosity, time 0-24 ([3]; speed 113.2 g/min): 2.25 cps
- Viscosity Var. % ([3]; speed 152 g/min): -36.3%
- Viscosity, time 0-24 ([3]; speed 152 g/min): 2.18 cps
- Viscosity Var. % ([3]; speed 200 g/min): -41.4%
- Viscosity, time 0-24 ([3]; speed 200 g/min): 2.04 cps
- Viscosity Var. % ([3]; speed 266.8 g/min): -39.2%
- Viscosity, time 0-24 ([3]; speed 266.8 g/min): 1.94 cps
- Viscosity Var. % ([3]; speed 352 g/min): -37.4%
- Viscosity, time 0-24 ([3]; speed 352 g/min): 1.91 cps
- Viscosity of gastric mucin (gastric mucin of the pig; speed 17.4 g/min): 24.87 cps
- Viscosity of gastric mucin (gastric mucin of the pig; speed 25 g/min): 22.39 cps
- Viscosity of gastric mucin (gastric mucin of the pig; speed 33.6 g/min): 24.05 cps
- Viscosity of gastric mucin (gastric mucin of the pig; speed 44.3 g/min): 22.92 cps
- Viscosity of gastric mucin (gastric mucin of the pig; speed 56.1 g/min): 23.14 cps
- Viscosity of gastric mucin (gastric mucin of the pig; speed 77.9 g/min): 20.91 cps
- Viscosity of gastric mucin (gastric mucin of the pig; speed 113.2 g/min): 20.88 cps
- Viscosity of gastric mucin (gastric mucin of the pig; speed 152 g/min): 18.81 cps
- Viscosity of gastric mucin (gastric mucin of the pig; speed 200 g/min): 17.24 cps
- Viscosity of gastric mucin (gastric mucin of the pig; speed 266.8 g/min): 15.48 cps
- Viscosity of gastric mucin (gastric mucin of the pig; speed 352 g/min): 14.29 cps
- Viscosity of gastric mucin, Var. % (gastric mucin of the pig; speed 17.4 g/min): -10.9%
- Viscosity of gastric mucin, Var. % (gastric mucin of the pig; speed 25 g/min): -19.1%
- Viscosity of gastric mucin, Var. % (gastric mucin of the pig; speed 33.6 g/min): -10.1%
- Viscosity of gastric mucin, Var. % (gastric mucin of the pig; speed 44.3 g/min): -14.1%
- Viscosity of gastric mucin, Var. % (gastric mucin of the pig; speed 56.1 g/min): -11%
- Viscosity of gastric mucin, Var. % (gastric mucin of the pig; speed 77.9 g/min): -15.4%
- Viscosity of gastric mucin, Var. % (gastric mucin of the pig; speed 113.2 g/min): -8.1%
- Viscosity of gastric mucin, Var. % (gastric mucin of the pig; speed 152 g/min): -9.1%
- Viscosity of gastric mucin, Var. % (gastric mucin of the pig; speed 200 g/min): -8.1%
- Viscosity of gastric mucin, Var. % (gastric mucin of the pig; speed 266.8 g/min): -10%
- Viscosity of gastric mucin, Var. % (gastric mucin of the pig; speed 352 g/min): -7.1%
